# Measurements: patent US20100316673A1, “NA[…]” (priority 2009, published 2010)
# Entries after “also recorded” stand apart in the source; their conditions may differ.
# Test system: virus
# Test: Virus inactivation by detergent component versus nanoemulsion
# Type: cell-based
# Details: at concentrations equivalent to 11% X8P (BCTP)
# Description: The nanoemulsions structure of the certain embodiments of the emulsions of the present invention may play a role in their biocidal activity as well as contributing to the non-toxicity of these emulsions. […] Adding the oil phase to the detergent and solvent markedly reduces the toxicity of these agents in tissue culture at the same concentrations. […] It should be noted that when all the components of X8P are combined in one composition but are not in a nanoemulsion structure, the mixture is not as effective as an antimicrobial as when the components are in a nanoemulsion structure.
# Individual components of nanoemulsions (e.g. in an immunogenic composition of the present invention) can function both to inactivate a pathogen as well as to contribute to the non-toxicity of the emulsions. […] Adding the oil phase to the detergent and solvent markedly reduces the toxicity of these agents in tissue culture at the same concentrations. […] Furthermore, when all the components of BCTP are combined in one composition but are not in a nanoemulsion structure, the mixture is not as effective at inactivating a pathogen as when the components are in a nanoemulsion structure.
substance,measurement,value
TRITON X-100 [TRITON-X100],biocidal activity against virus (ability to inactivate a virus),less biocidal activity; also recorded: less ability to inactivate a virus
